Common to all, as to assay type: cell-based
Conditions in all cases: fluorescent calcium assay

Assay [1] deals with T1, TRPML2 (Homo sapiens, UniProt Q8IZK6).
T1 construct: expressed in transfected cells
T1 sequence (Q8IZK6 1-566): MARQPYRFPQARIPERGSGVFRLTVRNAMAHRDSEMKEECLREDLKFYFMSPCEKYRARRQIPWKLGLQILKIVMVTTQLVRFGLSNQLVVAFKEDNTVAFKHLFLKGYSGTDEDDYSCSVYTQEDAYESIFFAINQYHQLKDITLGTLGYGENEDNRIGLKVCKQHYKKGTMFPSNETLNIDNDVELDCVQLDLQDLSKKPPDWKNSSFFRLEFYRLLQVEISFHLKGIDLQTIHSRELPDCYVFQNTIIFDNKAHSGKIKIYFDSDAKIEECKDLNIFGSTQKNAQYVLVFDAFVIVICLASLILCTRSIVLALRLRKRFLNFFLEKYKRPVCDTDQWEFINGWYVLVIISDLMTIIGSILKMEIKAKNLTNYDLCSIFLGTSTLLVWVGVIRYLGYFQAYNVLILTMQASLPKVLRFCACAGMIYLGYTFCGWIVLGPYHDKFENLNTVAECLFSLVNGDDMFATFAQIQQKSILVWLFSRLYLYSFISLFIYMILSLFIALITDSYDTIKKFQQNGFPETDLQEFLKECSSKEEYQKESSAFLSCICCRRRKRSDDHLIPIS
Kind of assay: Fluorescent TRPML2 assay (performed as for TRPML1, substituting the TRPML2 subtype). Put shortly:
(§1)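 HEK-293 Trex cells with doxycycline-induced (0.5 ug/mL) surface-directed human TRPML subtype, loaded with 1 μM Fluo4-AM, resuspended in Ringer's with 10 mM calcium. Compounds at 20 μM to 6 nM final in half-log steps, triplicate; fluorescence ex 480/em 540; EC50 by non-linear regression versus plate controls.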

Assay [2] deals with TRPML1 (Homo sapiens, UniProt Q9GZU1). Kind of assay: Fluorescent TRPML1 assay (Fluo4-AM calcium fluorescence in doxycycline-induced HEK-293 Trex cells). Put shortly: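 HEK-293 Trex cells stably expressing surface-directed mutant human TRPML1, induced with 0.5 µg/mL doxycycline overnight, were loaded with 1 µM Fluo4-AM and added to compound (6 nM–20 µM final, half-log steps, triplicate) in Ringer's with 10 mM calcium. Fluorescence ex 480/em 540; EC50 by non-linear regression versus plate controls.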
Chain of TRPML1 (Q9GZU1 whole entry L15A/L16A/L577A/L578A, form open): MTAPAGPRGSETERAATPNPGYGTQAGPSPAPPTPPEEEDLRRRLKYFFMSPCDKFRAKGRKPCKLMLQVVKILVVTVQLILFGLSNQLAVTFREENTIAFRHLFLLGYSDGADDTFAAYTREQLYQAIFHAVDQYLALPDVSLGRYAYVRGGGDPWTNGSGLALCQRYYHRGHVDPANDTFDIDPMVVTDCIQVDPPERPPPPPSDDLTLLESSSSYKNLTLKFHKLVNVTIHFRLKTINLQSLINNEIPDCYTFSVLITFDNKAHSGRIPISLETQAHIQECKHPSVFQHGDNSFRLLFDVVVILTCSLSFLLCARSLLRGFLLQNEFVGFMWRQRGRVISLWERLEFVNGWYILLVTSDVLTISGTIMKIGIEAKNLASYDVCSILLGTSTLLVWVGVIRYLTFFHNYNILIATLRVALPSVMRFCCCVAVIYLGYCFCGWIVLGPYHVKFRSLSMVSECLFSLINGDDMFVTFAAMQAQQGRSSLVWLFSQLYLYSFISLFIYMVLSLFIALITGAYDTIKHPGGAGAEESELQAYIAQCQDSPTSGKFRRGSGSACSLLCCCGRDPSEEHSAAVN

Assay [3] deals with T2, TRPML3 (Homo sapiens, UniProt Q8TDD5).
T2 construct: expressed in transfected cells
T2 sequence (Q8TDD5 1-553): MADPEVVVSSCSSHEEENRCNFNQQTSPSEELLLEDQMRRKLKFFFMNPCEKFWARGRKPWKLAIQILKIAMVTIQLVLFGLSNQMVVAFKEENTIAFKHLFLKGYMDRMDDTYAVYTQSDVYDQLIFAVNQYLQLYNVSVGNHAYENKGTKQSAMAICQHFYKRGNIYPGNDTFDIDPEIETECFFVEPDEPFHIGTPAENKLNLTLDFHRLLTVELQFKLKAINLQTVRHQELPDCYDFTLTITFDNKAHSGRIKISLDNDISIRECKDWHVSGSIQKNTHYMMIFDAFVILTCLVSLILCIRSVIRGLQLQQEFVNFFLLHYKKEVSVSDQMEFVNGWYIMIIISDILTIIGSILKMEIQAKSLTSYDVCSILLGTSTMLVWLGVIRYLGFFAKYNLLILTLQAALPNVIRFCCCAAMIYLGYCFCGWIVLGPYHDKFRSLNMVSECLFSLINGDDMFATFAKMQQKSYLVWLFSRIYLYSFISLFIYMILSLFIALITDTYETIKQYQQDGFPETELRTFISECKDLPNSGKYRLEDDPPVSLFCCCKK
Nature of the assay: Fluorescent TRPML3 assay (performed as for TRPML1, substituting the TRPML3 subtype). In outline:
as §1

Where only a bound is given, the exact number is not on record here.

Broadly, the EC50 is the concentration that produces a half-maximal response.

For `COc1cccc(-n2cc(-c3cccnc3)c3c(N4CCN(C(=O)OC(C)(C)C)C[C@@H]4C)ncnc32)c1` [Compound 272, tert-butyl-(S)-4-(7-(3-methoxyphenyl)-5-(pyridin-3-yl)-7H-pyrrolo[2,3-d]pyrimidin-4-yl)-3-methylpiperazine-1-carboxylate], the EC50 in assay [1] is 500 to 2000 nM; in assay [2], 100 to 500 nM; in assay [3], 100 to 500 nM.

As to `C[C@H]1CN(C(=O)OC(C)(C)C)CCN1c1ncnc2c1c(-c1nccnc1C(F)(F)F)cn2-c1cccc(Cl)c1` [Compound 273, tert-butyl (S)-4-(7-(3-chlorophenyl)-5-(3-(trifluoromethyl)pyrazin-2-yl)-7H-pyrrolo[2,3-d]pyrimidin-4-yl)-3-methylpiperazine-1-carboxylate], the figures for the EC50 in assay [1], in assay [2] and in assay [3] were 500 to 2000 nM, 100 to 500 nM and 100 to 500 nM, respectively.

As to `C[C@H]1CN(C(=O)OC(C)(C)C)CCN1c1ncnc2c1c(-c1nccnc1C#N)cn2-c1cccc(Cl)c1` [Compound 274, tert-butyl (S)-4-(7-(3-chlorophenyl)-5-(3-cyanopyrazin-2-yl)-7H-pyrrolo[2,3-d]pyrimidin-4-yl)-3-methylpiperazine-1-carboxylate], the EC50 was 500 to 2000 nM in assay [1], 100 to 500 nM in assay [2] and 100 to 500 nM in assay [3].

Regarding `COC(=O)c1nccnc1-c1cn(-c2cccc(Cl)c2)c2ncnc(N3CCN(C(=O)OC(C)(C)C)C[C@@H]3C)c12` [Compound 275, methyl (S)-3-(4-(4-(tert-butoxycarbonyl)-2-methylpiperazin-1-yl)-7-(3-chlorophenyl)-7H-pyrrolo[2,3-d]pyrimidin-5-yl)pyrazine-2-carboxylate], the results for the 50% effective concentration (EC50) in assay [1], in assay [2] and in assay [3] were greater than 2000 nM, greater than 2000 nM and 500 to 2000 nM, respectively.

With `C[C@@H]1CN(c2ncnc3c2c(N2CCC[C@H]2C)cn3-c2cccc(Cl)c2)CCN1C(=O)OC(C)(C)C` [Compound 299, tert-butyl (R)-4-(7-(3-chlorophenyl)-5-((R)-2-methylpyrrolidin-1-yl)-7H-pyrrolo[2,3-d]pyrimidin-4-yl)-2-methylpiperazine-1-carboxylate], the concentration giving a half-maximal response (EC50) in assay [1] was greater than 2000 nM; in assay [2] it was 500 to 2000 nM; in assay [3], 500 to 2000 nM.

On to `C[C@@H]1CN(c2ncnc3c2c(N2CCC(F)(F)C2)cn3-c2cccc(Cl)c2)CCN1C(=O)OC(C)(C)C` [Compound 300, tert-butyl (R)-4-(7-(3-chlorophenyl)-5-(3,3-difluoropyrrolidin-1-yl)-7H-pyrrolo[2,3-d]pyrimidin-4-yl)-2-methylpiperazine-1-carboxylate], for which the EC50 in assay [1] was 500 to 2000 nM; in assay [2], less than 100 nM; in assay [3], less than 100 nM.

For the molecule `COc1cc(-n2cc(C3CC3)c3c(N4CCN(C(=O)OC(C)(C)C)C[C@@H]4C)ncnc32)cc(F)c1F` [Compound 301, tert-butyl (S)-4-(5-cyclopropyl-7-(3,4-difluoro-5-methoxyphenyl)-7H-pyrrolo[2,3-d]pyrimidin-4-yl)-3-methylpiperazine-1-carboxylate], the EC50 in assay [1] was in the range of 500 to 2000 nM; in assay [2] it was 100 to 500 nM; in assay [3], 100 to 500 nM.

Take `COc1cc(C#N)cc(-n2cc(C3CC3)c3c(N4CCN(C(=O)OC(C)(C)C)C[C@@H]4C)ncnc32)c1` [Compound 302, tert-butyl (S)-4-(7-(3-cyano-5-methoxyphenyl)-5-cyclopropyl-7H-pyrrolo[2,3-d]pyrimidin-4-yl)-3-methylpiperazine-1-carboxylate]: the EC50 was greater than 2000 nM in assay [1], 500 to 2000 nM in assay [2] and 100 to 500 nM in assay [3].

In the case of `C[C@H]1CN(C(=O)OC(C)(C)C)CCN1c1ncnc2c1c(C1CC1)cn2-c1cc(C#N)cc(OC(F)(F)F)c1` [Compound 303, tert-butyl (S)-4-(7-(3-cyano-5-(trifluoromethoxy)phenyl)-5-cyclopropyl-7H-pyrrolo[2,3-d]pyrimidin-4-yl)-3-methylpiperazine-1-carboxylate], the results for the EC50 in assay [1], in assay [2] and in assay [3] were 500 to 2000 nM, 100 to 500 nM and 100 to 500 nM, respectively.

Consider `Cc1nccnc1-c1cn(-c2cccc(OC(F)(F)F)c2)c2ncnc(N3CCN(C(=O)OC(C)(C)C)C[C@@H]3C)c12` [Compound 304, tert-butyl (S)-3-methyl-4-(5-(3-methylpyrazin-2-yl)-7-(3-(trifluoromethoxy)phenyl)-7H-pyrrolo[2,3-d]pyrimidin-4-yl)piperazine-1-carboxylate], for which the EC50 lay in the range of 500 to 2000 nM in assay [1], 500 to 2000 nM in assay [2] and 100 to 500 nM in assay [3].

In the case of `Cc1nccnc1-c1cn(-c2cc(F)c(F)c(F)c2)c2ncnc(N3CCN(C(=O)OC(C)(C)C)C[C@@H]3C)c12` [Compound 305, tert-butyl (S)-3-methyl-4-(5-(3-methylpyrazin-2-yl)-7-(3,4,5-trifluorophenyl)-7H-pyrrolo[2,3-d]pyrimidin-4-yl)piperazine-1-carboxylate], the EC50 is greater than 2000 nM in assay [1], 500 to 2000 nM in assay [2] and 100 to 500 nM in assay [3].

In the case of `Cc1ccc(Cl)cc1-n1cc(N2CCCC2)c2c(N3CCN(C(=O)OC(C)(C)C)C[C@@H]3C)ncnc21` [Compound 306, tert-butyl (S)-4-(7-(5-chloro-2-methylphenyl)-5-(pyrrolidin-1-yl)-7H-pyrrolo[2,3-d]pyrimidin-4-yl)-3-methylpiperazine-1-carboxylate], the EC50 lay in the range of 500 to 2000 nM in assay [1], 500 to 2000 nM in assay [2] and 100 to 500 nM in assay [3].

`C[C@H]1CN(C(=O)OC(C)(C)C)CCN1c1ncnc2c1c(N1CCC[C@@H]1CO)cn2-c1cc(F)cc(F)c1` [Compound 307, tert-butyl (S)-4-(7-(3,5-difluorophenyl)-5-((R)-2-(hydroxymethyl)pyrrolidin-1-yl)-7H-pyrrolo[2,3-d]pyrimidin-4-yl)-3-methylpiperazine-1-carboxylate]: the EC50 was 500 to 2000 nM in assay [1], 500 to 2000 nM in assay [2] and less than 100 nM in assay [3].

`C[C@H]1CN(C(=O)OC(C)(C)C)CCN1c1ncnc2c1c(N1CCC(F)(F)C1)cn2-c1cccc(Cl)c1` [Compound 308, tert-butyl (S)-4-(7-(3-chlorophenyl)-5-(3,3-difluoropyrrolidin-1-yl)-7H-pyrrolo[2,3-d]pyrimidin-4-yl)-3-methylpiperazine-1-carboxylate]: the EC50 in assay [1], in assay [2] and in assay [3] was less than 100 nM throughout.

Turning to `C[C@H]1CN(C(=O)OC(C)(C)C)CCN1c1ncnc2c1c(N1CCCC1=O)cn2-c1cccc(Cl)c1` [Compound 309, tert-butyl (S)-4-(7-(3-chlorophenyl)-5-(2-oxopyrrolidin-1-yl)-7H-pyrrolo[2,3-d]pyrimidin-4-yl)-3-methylpiperazine-1-carboxylate], the concentration for a half-maximal effect (EC50) was greater than 2000 nM in assay [1], greater than 2000 nM in assay [2] and 500 to 2000 nM in assay [3].

With `C[C@H]1CN(C(=O)OC(C)(C)C)CCN1c1ncnc2c1c(N1CCCCC1)cn2-c1cccc(Cl)c1` [Compound 310, tert-butyl (S)-4-(7-(3-chlorophenyl)-5-(piperidin-1-yl)-7H-pyrrolo[2,3-d]pyrimidin-4-yl)-3-methylpiperazine-1-carboxylate], the EC50 in assay [1], in assay [2] and in assay [3] was less than 100 nM in each case.

The values above are taken from patent US20250136606A1, “MODULATORS OF TRPML, THEIR COMPOSITIONS AND METHODS OF USE” (Caraway Therapeutics, Inc., priority 2021, published 2025).
